A word on the IC50: it is the concentration needed to halve the response being measured.

The record followed here is ChEMBL document CHEMBL1909046, “DrugMatrix in vitro pharmacology data”.

Chain of Tyrosine-protein kinase Lck (P06239 whole entry): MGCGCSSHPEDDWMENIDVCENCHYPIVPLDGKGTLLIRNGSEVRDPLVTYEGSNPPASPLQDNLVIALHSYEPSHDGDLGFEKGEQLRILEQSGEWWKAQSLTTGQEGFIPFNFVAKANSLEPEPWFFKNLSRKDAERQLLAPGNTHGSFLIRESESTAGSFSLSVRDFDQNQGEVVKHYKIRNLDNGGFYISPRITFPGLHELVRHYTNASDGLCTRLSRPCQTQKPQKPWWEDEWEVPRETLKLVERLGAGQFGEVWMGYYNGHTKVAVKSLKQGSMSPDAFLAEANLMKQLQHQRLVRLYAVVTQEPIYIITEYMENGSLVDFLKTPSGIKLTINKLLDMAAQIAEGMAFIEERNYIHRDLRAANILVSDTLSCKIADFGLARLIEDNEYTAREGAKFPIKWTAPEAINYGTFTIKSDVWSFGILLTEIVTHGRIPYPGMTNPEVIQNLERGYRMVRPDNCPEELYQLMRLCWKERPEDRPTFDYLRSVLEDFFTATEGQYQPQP

The target of one data set is T1, B2 bradykinin receptor (Homo sapiens, UniProt P30411). Note: in other assays of this panel Not Active means under 50% inhibition at 10 µM.
T1 sequence (P30411 whole entry): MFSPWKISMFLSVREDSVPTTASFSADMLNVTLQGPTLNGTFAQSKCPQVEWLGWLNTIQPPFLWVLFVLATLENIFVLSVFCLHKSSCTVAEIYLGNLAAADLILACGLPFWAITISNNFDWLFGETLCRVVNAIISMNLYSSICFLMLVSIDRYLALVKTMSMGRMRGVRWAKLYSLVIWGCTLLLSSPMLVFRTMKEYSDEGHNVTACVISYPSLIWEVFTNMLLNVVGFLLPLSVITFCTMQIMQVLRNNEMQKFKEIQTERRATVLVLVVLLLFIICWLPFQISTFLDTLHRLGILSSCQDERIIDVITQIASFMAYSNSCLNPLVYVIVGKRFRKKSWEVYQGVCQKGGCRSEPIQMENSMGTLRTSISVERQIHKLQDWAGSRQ
Test: not given
In kind it is cell membranes, Membrane. Particulars: chem-1.
For `CC(=O)O[C@]1(C(C)=O)CC[C@H]2[C@@H]3C=C(Cl)C4=CC(=O)[C@@H]5C[C@@H]5[C@]4(C)[C@H]3CC[C@@]21C` [CYPROTERONE ACETATE], the IC50 result was “Not Active”.

Turning to `Nc1nc(N)nc(NC2CC2)n1` [CYROMAZINE], the concentration for half-maximal inhibition (IC50) result is “Not Active”.

With `C#C[C@]1(O)CC[C@H]2[C@@H]3CCC4=Cc5oncc5C[C@]4(C)[C@H]3CC[C@@]21C` [DANAZOL], the half-maximal inhibitory concentration (IC50) result is recorded as “Not Active”.

`CCN[C@@H](C)Cc1cccc(C(F)(F)F)c1` [DEXFENFLURAMINE]: the IC50 entry is given as “Not Active”.

Turning to `C[C@H](C(=O)O)c1cccc(C(=O)c2ccccc2)c1` [DEXKETOPROFEN], the IC50 entry is reported as “Not Active”.

For the molecule `CN1C(=O)CN=C(c2ccccc2)c2cc(Cl)ccc21` [DIAZEPAM], the concentration for half-maximal inhibition (IC50) entry is on record as “Not Active”.

As for `CN1C[C@H](C(=O)N[C@]2(C)O[C@@]3(O)[C@@H]4CCCN4C(=O)[C@H](Cc4ccccc4)N3C2=O)C[C@@H]2c3cccc4[nH]cc(c34)C[C@H]21` [DIHYDROERGOTAMINE], the half-inhibitory concentration (IC50) entry is on record as “Not Active”.

Test system in another data set: not listed separately
The data set is described as follows: DRUGMATRIX: Tumor Necrosis Factor (TNF), Non-Selective radioligand binding (ligand: [125I] TNF-alpha). The class given is cell membranes, Membrane. Conditions: u-937; Not Active = under 50% inhibition at 10 µM.
As for `CC(=O)O[C@]1(C(C)=O)CC[C@H]2[C@@H]3C=C(Cl)C4=CC(=O)[C@@H]5C[C@@H]5[C@]4(C)[C@H]3CC[C@@]21C` [CYPROTERONE ACETATE], the IC50 result is given as “Not Active” and the Ki result is given as “Not Active”.

Take `Nc1nc(N)nc(NC2CC2)n1` [CYROMAZINE]: the 50% inhibitory concentration (IC50) result is recorded as “Not Active” and the Ki result is given as “Not Active”.

For the molecule `C#C[C@]1(O)CC[C@H]2[C@@H]3CCC4=Cc5oncc5C[C@]4(C)[C@H]3CC[C@@]21C` [DANAZOL], the IC50 result was “Not Active” and the Ki entry is on record as “Not Active”.

As to `CCN[C@@H](C)Cc1cccc(C(F)(F)F)c1` [DEXFENFLURAMINE], the IC50 entry is “Not Active” and the Ki result is given as “Not Active”.

For `C[C@H](C(=O)O)c1cccc(C(=O)c2ccccc2)c1` [DEXKETOPROFEN], the half-maximal inhibitory concentration (IC50) result was “Not Active” and the Ki result is reported as “Not Active”.

Consider `CN1C(=O)CN=C(c2ccccc2)c2cc(Cl)ccc21` [DIAZEPAM], for which the IC50 entry was “Not Active” and the Ki entry is listed as “Not Active”.

As for `CN1C[C@H](C(=O)N[C@]2(C)O[C@@]3(O)[C@@H]4CCCN4C(=O)[C@H](Cc4ccccc4)N3C2=O)C[C@@H]2c3cccc4[nH]cc(c34)C[C@H]21` [DIHYDROERGOTAMINE], the IC50 entry is “Not Active” and the Ki result was “Not Active”.

The target in the next data set is Cytochrome P450 2E1 (Homo sapiens, UniProt P05181). Note: in other assays of this panel Not Active means under 50% inhibition at 10 µM.
Chain of Cytochrome P450 2E1 (P05181 whole entry): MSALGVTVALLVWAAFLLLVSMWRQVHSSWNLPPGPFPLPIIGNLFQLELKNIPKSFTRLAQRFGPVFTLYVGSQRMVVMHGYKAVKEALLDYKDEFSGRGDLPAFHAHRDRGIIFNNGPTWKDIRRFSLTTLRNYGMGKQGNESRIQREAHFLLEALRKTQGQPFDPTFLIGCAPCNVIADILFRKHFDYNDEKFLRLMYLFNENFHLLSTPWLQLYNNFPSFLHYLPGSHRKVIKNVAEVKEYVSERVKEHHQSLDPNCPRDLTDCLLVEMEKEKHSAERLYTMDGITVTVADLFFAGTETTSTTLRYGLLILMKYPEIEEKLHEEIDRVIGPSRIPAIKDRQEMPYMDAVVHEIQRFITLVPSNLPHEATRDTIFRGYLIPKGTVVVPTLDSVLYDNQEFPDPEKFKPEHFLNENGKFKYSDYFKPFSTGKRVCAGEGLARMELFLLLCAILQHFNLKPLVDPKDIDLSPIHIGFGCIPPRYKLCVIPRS
Test: not given
Conditions: bti-tn-5b1-4.
With `CC(=O)O[C@]1(C(C)=O)CC[C@H]2[C@@H]3C=C(Cl)C4=CC(=O)[C@@H]5C[C@@H]5[C@]4(C)[C@H]3CC[C@@]21C` [CYPROTERONE ACETATE], the IC50 result is on record as “Not Active” and the Ki result is reported as “Not Active”.

For `Nc1nc(N)nc(NC2CC2)n1` [CYROMAZINE], the concentration for half-maximal inhibition (IC50) entry is recorded as “Not Active” and the Ki result is given as “Not Active”.

Consider `C#C[C@]1(O)CC[C@H]2[C@@H]3CCC4=Cc5oncc5C[C@]4(C)[C@H]3CC[C@@]21C` [DANAZOL], for which the concentration for half-maximal inhibition (IC50) entry is recorded as “Not Active” and the Ki result is given as “Not Active”.

For `CCN[C@@H](C)Cc1cccc(C(F)(F)F)c1` [DEXFENFLURAMINE], the 50% inhibitory concentration (IC50) result was “Not Active” and the Ki result is “Not Active”.

As to `C[C@H](C(=O)O)c1cccc(C(=O)c2ccccc2)c1` [DEXKETOPROFEN], the IC50 entry is listed as “Not Active” and the Ki result was “Not Active”.

Take `CN1C(=O)CN=C(c2ccccc2)c2cc(Cl)ccc21` [DIAZEPAM]: the half-inhibitory concentration (IC50) result is “Not Active” and the Ki result is “Not Active”.

As to `CN1C[C@H](C(=O)N[C@]2(C)O[C@@]3(O)[C@@H]4CCCN4C(=O)[C@H](Cc4ccccc4)N3C2=O)C[C@@H]2c3cccc4[nH]cc(c34)C[C@H]21` [DIHYDROERGOTAMINE], the half-maximal inhibitory concentration (IC50) entry is given as “Not Active” and the Ki entry is given as “Not Active”.

Test system in a further data set: not listed separately
The data set can be described thus: DRUGMATRIX: Nicotinic Acetylcholine radioligand binding (ligand: [125I] Epibatidine). In kind it is cell membranes, Membrane. Particulars: imr-32; Not Active = under 50% inhibition at 10 µM.
`CC(=O)O[C@]1(C(C)=O)CC[C@H]2[C@@H]3C=C(Cl)C4=CC(=O)[C@@H]5C[C@@H]5[C@]4(C)[C@H]3CC[C@@]21C` [CYPROTERONE ACETATE]: the IC50 result was “Not Active” and the Ki entry is given as “Not Active”.

`Nc1nc(N)nc(NC2CC2)n1` [CYROMAZINE]: the IC50 entry is “Not Active” and the Ki result is given as “Not Active”.

Turning to `C#C[C@]1(O)CC[C@H]2[C@@H]3CCC4=Cc5oncc5C[C@]4(C)[C@H]3CC[C@@]21C` [DANAZOL], the IC50 result is on record as “Not Active” and the Ki result was “Not Active”.

Regarding `CCN[C@@H](C)Cc1cccc(C(F)(F)F)c1` [DEXFENFLURAMINE], the IC50 result is “Not Active” and the Ki entry is reported as “Not Active”.

On to `C[C@H](C(=O)O)c1cccc(C(=O)c2ccccc2)c1` [DEXKETOPROFEN], for which the IC50 entry is recorded as “Not Active” and the Ki entry was “Not Active”.

For `CN1C(=O)CN=C(c2ccccc2)c2cc(Cl)ccc21` [DIAZEPAM], the IC50 result is given as “Not Active” and the Ki entry was “Not Active”.

Regarding `CN1C[C@H](C(=O)N[C@]2(C)O[C@@]3(O)[C@@H]4CCCN4C(=O)[C@H](Cc4ccccc4)N3C2=O)C[C@@H]2c3cccc4[nH]cc(c34)C[C@H]21` [DIHYDROERGOTAMINE], the half-maximal inhibitory concentration (IC50) entry is “Not Active” and the Ki result is given as “Not Active”.

For the next data set, the target named is Tyrosine-protein kinase Fyn (Homo sapiens, UniProt P06241). The data set is described as follows: biochemical. In kind it is cell-based, Insect cells. Conditions: insect cells.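 Note: enzymatic inhibition of Fyn kinase activity measured with Poly(Glu:Tyr) as the phosphorylation substrate; in other assays of this panel Not Active means under 50% inhibition at 10 µM.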
Chain of Tyrosine-protein kinase Fyn (P06241 whole entry): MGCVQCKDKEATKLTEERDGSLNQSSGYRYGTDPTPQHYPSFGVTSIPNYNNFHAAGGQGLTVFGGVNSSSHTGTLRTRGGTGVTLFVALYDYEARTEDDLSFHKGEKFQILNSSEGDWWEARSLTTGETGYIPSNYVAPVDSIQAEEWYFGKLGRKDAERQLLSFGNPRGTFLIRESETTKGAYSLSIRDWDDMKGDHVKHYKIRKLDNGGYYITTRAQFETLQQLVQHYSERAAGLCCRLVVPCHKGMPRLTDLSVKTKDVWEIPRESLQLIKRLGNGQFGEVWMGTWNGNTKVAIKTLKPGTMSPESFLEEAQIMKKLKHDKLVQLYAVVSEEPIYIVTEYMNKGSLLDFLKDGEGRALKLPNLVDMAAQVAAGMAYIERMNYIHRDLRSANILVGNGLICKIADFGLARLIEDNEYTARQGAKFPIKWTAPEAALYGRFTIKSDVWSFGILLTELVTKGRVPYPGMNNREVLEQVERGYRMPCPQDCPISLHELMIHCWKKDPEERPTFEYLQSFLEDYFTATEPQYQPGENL
With `CC(=O)O[C@]1(C(C)=O)CC[C@H]2[C@@H]3C=C(Cl)C4=CC(=O)[C@@H]5C[C@@H]5[C@]4(C)[C@H]3CC[C@@]21C` [CYPROTERONE ACETATE], the IC50 entry was “Not Active”.

For `Nc1nc(N)nc(NC2CC2)n1` [CYROMAZINE], the IC50 result was “Not Active”.

For `C#C[C@]1(O)CC[C@H]2[C@@H]3CCC4=Cc5oncc5C[C@]4(C)[C@H]3CC[C@@]21C` [DANAZOL], the half-inhibitory concentration (IC50) result is on record as “Not Active”.

For the molecule `CCN[C@@H](C)Cc1cccc(C(F)(F)F)c1` [DEXFENFLURAMINE], the concentration for half-maximal inhibition (IC50) entry is “Not Active”.

Regarding `C[C@H](C(=O)O)c1cccc(C(=O)c2ccccc2)c1` [DEXKETOPROFEN], the IC50 result is “Not Active”.

With `CN1C(=O)CN=C(c2ccccc2)c2cc(Cl)ccc21` [DIAZEPAM], the 50% inhibitory concentration (IC50) entry is “Not Active”.

On to `CN1C[C@H](C(=O)N[C@]2(C)O[C@@]3(O)[C@@H]4CCCN4C(=O)[C@H](Cc4ccccc4)N3C2=O)C[C@@H]2c3cccc4[nH]cc(c34)C[C@H]21` [DIHYDROERGOTAMINE], for which the concentration for half-maximal inhibition (IC50) entry is “Not Active”.

Another data set concerns the target Tyrosine-protein kinase Lck (Homo sapiens, UniProt P06239). The data set is described as follows: DRUGMATRIX: Protein Tyrosine Kinase, LCK enzyme inhibition (substrate: Poly(Glu:Tyr)). The class given is cell-based, Insect cells. Conditions: insect cells; Not Active = under 50% inhibition at 10 µM.
For `CC(=O)O[C@]1(C(C)=O)CC[C@H]2[C@@H]3C=C(Cl)C4=CC(=O)[C@@H]5C[C@@H]5[C@]4(C)[C@H]3CC[C@@]21C` [CYPROTERONE ACETATE], the IC50 entry is reported as “Not Active”.

Consider `Nc1nc(N)nc(NC2CC2)n1` [CYROMAZINE], for which the half-maximal inhibitory concentration (IC50) entry is recorded as “Not Active”.

For `C#C[C@]1(O)CC[C@H]2[C@@H]3CCC4=Cc5oncc5C[C@]4(C)[C@H]3CC[C@@]21C` [DANAZOL], the half-maximal inhibitory concentration (IC50) entry is given as “Not Active”.

`CCN[C@@H](C)Cc1cccc(C(F)(F)F)c1` [DEXFENFLURAMINE]: the concentration for half-maximal inhibition (IC50) result was “Not Active”.

With `C[C@H](C(=O)O)c1cccc(C(=O)c2ccccc2)c1` [DEXKETOPROFEN], the IC50 entry is listed as “Not Active”.

As to `CN1C(=O)CN=C(c2ccccc2)c2cc(Cl)ccc21` [DIAZEPAM], the IC50 result was “Not Active”.

On to `CN1C[C@H](C(=O)N[C@]2(C)O[C@@]3(O)[C@@H]4CCCN4C(=O)[C@H](Cc4ccccc4)N3C2=O)C[C@@H]2c3cccc4[nH]cc(c34)C[C@H]21` [DIHYDROERGOTAMINE], for which the IC50 result is recorded as “Not Active”.

Test system in a further data set: not listed separately
The data set is described as follows: DRUGMATRIX: Phosphodiesterase PDE3 enzyme inhibition (substrate: [3H]cAMP + cAMP). In kind it is tissue-based, Homo sapiens. Particulars: platelet; Not Active = under 50% inhibition at 10 µM.
Regarding `CC(=O)O[C@]1(C(C)=O)CC[C@H]2[C@@H]3C=C(Cl)C4=CC(=O)[C@@H]5C[C@@H]5[C@]4(C)[C@H]3CC[C@@]21C` [CYPROTERONE ACETATE], the half-maximal inhibitory concentration (IC50) entry is recorded as “Not Active” and the Ki entry is given as “Not Active”.

In the case of `Nc1nc(N)nc(NC2CC2)n1` [CYROMAZINE], the IC50 entry is “Not Active” and the Ki result is “Not Active”.

On to `CCN[C@@H](C)Cc1cccc(C(F)(F)F)c1` [DEXFENFLURAMINE], for which the concentration for half-maximal inhibition (IC50) entry is reported as “Not Active” and the Ki entry is “Not Active”.

As to `C[C@H](C(=O)O)c1cccc(C(=O)c2ccccc2)c1` [DEXKETOPROFEN], the 50% inhibitory concentration (IC50) entry was “Not Active” and the Ki result is “Not Active”.

In the case of `CN1C(=O)CN=C(c2ccccc2)c2cc(Cl)ccc21` [DIAZEPAM], the IC50 entry was “Not Active” and the Ki entry is reported as “Not Active”.

Regarding `CN1C[C@H](C(=O)N[C@]2(C)O[C@@]3(O)[C@@H]4CCCN4C(=O)[C@H](Cc4ccccc4)N3C2=O)C[C@@H]2c3cccc4[nH]cc(c34)C[C@H]21` [DIHYDROERGOTAMINE], the concentration for half-maximal inhibition (IC50) entry is listed as “Not Active” and the Ki result was “Not Active”.

The same data set, now with this note: platelet; Not Active = under 50% inhibition at 10 µM; read-out: IC50.
Regarding `C#C[C@]1(O)CC[C@H]2[C@@H]3CCC4=Cc5oncc5C[C@]4(C)[C@H]3CC[C@@]21C` [DANAZOL], the half-inhibitory concentration (IC50) stood at 2.54 µM.
